Reference: patent US12077503B2, “Substituted cyclic amides and their use as herbicides” (FMC CORPORATION, priority 2015, dated 2024)

Tests used:
Format in all cases: in vivo
[1] = tested on: ryegrass, Italian (Italian ryegrass, Lolium multiflorum); test: Test A postemergence; conditions: Lolium multiflorum, post-emergence, 240 h, read-out: Plant response rating, Ryegrass, Italian; for pest or weed control at 125 g/ha: 125 g ai/ha, Postemergence, visual injury after approximately 10 d, 0 to 100 scale where 0 is no effect and 100 is complete control
Method in brief: (§1)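 Each rating is a visual injury score from 0 to 100 given about 10 d after treatment, judged against untreated controls kept alongside in the greenhouse. In loam soil–sand blend, seeds got a preemergence directed soil spray, while postemergence plants were 2 to 10 cm tall at spraying.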

[2] = tested on: ragweed (common ragweed, Ambrosia elatior); test: Test A postemergence; conditions: Ambrosia artemisiifolia, post-emergence, 240 h, read-out: Plant response rating, Ragweed; for pest or weed control at 125 g/ha: 125 g ai/ha, Postemergence, visual injury after approximately 10 d, 0 to 100 scale where 0 is no effect and 100 is complete control
Method in brief: as §1

[3] = tested on: giant foxtail (Setaria faberii); test: Test A postemergence; conditions: Setaria faberi, post-emergence, 240 h, read-out: Plant response rating, Foxtail, Giant; for pest or weed control at 125 g/ha: 125 g ai/ha, Postemergence, visual injury after approximately 10 d, 0 to 100 scale where 0 is no effect and 100 is complete control
Method in brief: as §1

[4] = tested on: corn (Zea mays); test: Test A postemergence; conditions: Zea mays, post-emergence, 240 h; for Corn plant response rating (crop injury, 0 = no effect, 100 = complete kill) at 125 g/ha: 125 g ai/ha, Postemergence, visual injury after approximately 10 d, 0 to 100 scale where 0 is no effect and 100 is complete control
Method in brief: as §1

[5] = tested on: Galium (catchweed bedstraw, Galium aparine); test: Test A postemergence; conditions: Galium, post-emergence, 240 h, read-out: Plant response rating, Galium; for pest or weed control at 125 g/ha: 125 g ai/ha, Postemergence, visual injury after approximately 10 d, 0 to 100 scale where 0 is no effect and 100 is complete control
Method in brief: as §1

[6] = tested on: blackgrass (Alopecurus myosuroides); test: Test A postemergence; conditions: Alopecurus myosuroides, post-emergence, 240 h, read-out: Plant response rating, Blackgrass; for pest or weed control at 125 g/ha: 125 g ai/ha, Postemergence, visual injury after approximately 10 d, 0 to 100 scale where 0 is no effect and 100 is complete control
Method in brief: as §1

[7] = tested on: barnyardgrass (Echinochloa crus-galli); test: Test A postemergence; conditions: Echinochloa crus-galli, post-emergence, 240 h, read-out: Plant response rating, Barnyardgrass; for pest or weed control at 125 g/ha: 125 g ai/ha, Postemergence, visual injury after approximately 10 d, 0 to 100 scale where 0 is no effect and 100 is complete control
Method in brief: as §1

[8] = tested on: Kochia (Kochia scoparia); test: Test A postemergence; conditions: Bassia scoparia, post-emergence, 240 h, read-out: Plant response rating, Kochia; for pest or weed control at 125 g/ha: 125 g ai/ha, Postemergence, visual injury after approximately 10 d, 0 to 100 scale where 0 is no effect and 100 is complete control
Method in brief: as §1

[9] = tested on: wheat (Triticum aestivum); test: Test A postemergence; conditions: Triticum aestivum, post-emergence, 240 h, read-out: Plant response rating, Wheat; for plant injury at 125 g/ha: 125 g ai/ha, Postemergence, visual injury after approximately 10 d, 0 to 100 scale where 0 is no effect and 100 is complete control
Method in brief: as §1

[10] = tested on: ryegrass, Italian (Italian ryegrass, Lolium multiflorum); test: Test A preemergence; conditions: Lolium multiflorum, pre-emergence, 240 h; for pest or weed control at 125 g/ha: 125 g ai/ha, Preemergence, visual injury rating after approximately 10 d, read-out: Ryegrass, Italian plant response rating (0 to 100 scale, 0 is no effect, 100 is complete control); for pest or weed control at 500 g/ha: 500 g ai/ha, preemergence, visual injury rating about 10 d after treatment, 0 to 100 scale (0 no effect, 100 complete control), read-out: Ryegrass, Italian plant response rating
Method in brief: as §1

[11] = tested on: pigweed (Amaranthus retroflexus); test: Test A preemergence; conditions: Amaranthus retroflexus, pre-emergence, 240 h; for pest or weed control at 125 g/ha: 125 g ai/ha, Preemergence, visual injury rating after approximately 10 d, read-out: Pigweed plant response rating (0 to 100 scale, 0 is no effect, 100 is complete control); for pest or weed control at 500 g/ha: 500 g ai/ha, preemergence, visual injury rating about 10 d after treatment, 0 to 100 scale (0 no effect, 100 complete control), read-out: Pigweed plant response rating
[12] = tested on: ragweed (common ragweed, Ambrosia elatior); test: Test A preemergence; conditions: Ambrosia artemisiifolia, pre-emergence, 240 h; for pest or weed control at 125 g/ha: 125 g ai/ha, Preemergence, visual injury rating after approximately 10 d, read-out: Ragweed plant response rating (0 to 100 scale, 0 is no effect, 100 is complete control); for pest or weed control at 500 g/ha: 500 g ai/ha, preemergence, visual injury rating about 10 d after treatment, 0 to 100 scale (0 no effect, 100 complete control), read-out: Ragweed plant response rating
Method in brief: as §1

[13] = tested on: giant foxtail (Setaria faberii); test: Test A preemergence; conditions: Setaria faberi, pre-emergence, 240 h; for pest or weed control at 125 g/ha: 125 g ai/ha, Preemergence, visual injury rating after approximately 10 d, read-out: Foxtail, Giant plant response rating (0 to 100 scale, 0 is no effect, 100 is complete control); for pest or weed control at 500 g/ha: 500 g ai/ha, preemergence, visual injury rating about 10 d after treatment, 0 to 100 scale (0 no effect, 100 complete control), read-out: Foxtail, Giant plant response rating
Method in brief: as §1

[14] = tested on: barnyardgrass (Echinochloa crus-galli); test: Test A preemergence; conditions: Echinochloa crus-galli, pre-emergence, 240 h; for pest or weed control at 125 g/ha: 125 g ai/ha, Preemergence, visual injury rating after approximately 10 d, read-out: Barnyardgrass plant response rating (0 to 100 scale, 0 is no effect, 100 is complete control); for pest or weed control at 500 g/ha: 500 g ai/ha, preemergence, visual injury rating about 10 d after treatment, 0 to 100 scale (0 no effect, 100 complete control), read-out: Barnyardgrass plant response rating
Method in brief: as §1

[15] = tested on: Kochia (Kochia scoparia); test: Test A preemergence; conditions: Bassia scoparia, pre-emergence, 240 h; for pest or weed control at 125 g/ha: 125 g ai/ha, Preemergence, visual injury rating after approximately 10 d, read-out: Kochia plant response rating (0 to 100 scale, 0 is no effect, 100 is complete control); for pest or weed control at 500 g/ha: 500 g ai/ha, preemergence, visual injury rating about 10 d after treatment, 0 to 100 scale (0 no effect, 100 complete control), read-out: Kochia plant response rating
Method in brief: as §1

[16] = 500 g ai/ha, postemergence, visual injury, 0 to 100 scale (0 no effect, 100 complete control), approx. 10 d

Structure (SMILES)	pest or weed control at 125 g/ha [1]	pest or weed control at 125 g/ha [2]	pest or weed control at 125 g/ha [3]	Corn plant response rating (crop injury, 0 = no effect, 100 = complete kill) at 125 g/ha [4]	pest or weed control at 125 g/ha [5]	pest or weed control at 125 g/ha [6]	pest or weed control at 125 g/ha [7]	pest or weed control at 125 g/ha [8]	plant injury at 125 g/ha [9]	pest or weed control at 125 g/ha [10]	pest or weed control at 500 g/ha [10]	pest or weed control at 125 g/ha [11]	pest or weed control at 500 g/ha [11]	pest or weed control at 125 g/ha [12]	pest or weed control at 500 g/ha [12]	pest or weed control at 125 g/ha [13]	pest or weed control at 500 g/ha [13]	pest or weed control at 125 g/ha [14]	pest or weed control at 500 g/ha [14]	pest or weed control at 125 g/ha [15]	other results
Cc1cc([C@H]2CN(C)C(=O)[C@@H]2C(=O)Nc2ccccc2S(C)(=O)=O)ccc1Cl [Compound 944]	30%	40%	90%	30%	20%	60%	80%	0%	40%	0%	0%	0%	20%	50%	50%	90%	90%	90%	90%	0%	pest or weed control at 500 g/ha [15]: 70%
Cc1ccc([C@H]2CN(C)C(=O)[C@@H]2C(=O)Nc2cccc(F)c2F)cc1Cl [Compound 1013]	0%	0%	80%	80%	70%	0%	90%	40%	40%	30%	70%	30%	40%	0%	0%	90%	90%	90%	90%	50%	pest or weed control at 500 g/ha [1, 16]: 60%; pest or weed control at 500 g/ha [2, 16]: 40%; pest or weed control at 500 g/ha [3, 16]: 90%; Corn plant response rating (crop injury, 0 = no effect, 100 = complete kill) at 500 g/ha [4, 16]: 90%; pest or weed control at 500 g/ha [5, 16]: 70%; pest or weed control at 500 g/ha [6, 16]: 40%; pest or weed control at 500 g/ha [7, 16]: 90%; pest or weed control at 500 g/ha [8, 16]: 60%; plant injury at 500 g/ha [9, 16]: 60%; pest or weed control at 500 g/ha [15]: 70%
